Data: the supplement of paper PMC10307832

Tests used:
Assay in all cases: relative viability (nuclei count vs DMSO), 5 days (fraction); higher = more cells survive
[1] = compound: C1CNCCC1C2=CC(=NN2)C3=CC=NC=C3 + CC(=O)Nc1cccc(-n2c(=O)n(C3CC3)c(=O)c3c(Nc4ccc(I)cc4F)n(C)c(=O)c(C)c32)c1 [Trametinib] (partner 0.02 µM)
Outline: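 Relative viability is defined as nuclei in treated wells over nuclei in vehicle wells. Duplicate plates were run and medians reported. Lung cancer cell lines in 1536-well plates were dosed by pin tool one day after seeding, with one drug or with a fixed anchor-drug dose plus five library-drug doses (not always all listed) in √10 steps, and nuclei were counted after 5 days.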

[2] = compound: C1CNCCC1C2=CC(=NN2)C3=CC=NC=C3
Outline: (§1)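 Following overnight incubation at 37 °C, lung cancer cell lines in 1536-well plates were pinned with five library-drug doses (not always all listed) in √10 steps on vehicle-anchored plates. The cells then spent 5 days without medium change before a combined fix, permeabilisation and Hoechst stain, 4× imaging and MetaXpress nuclear counts. Viability is the treated-to-vehicle ratio of nuclei, taken as the median across plates. Only plates with control CV below 25% and at least one doubling passed.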

[3] = compound: C[C@@H](N)c1ccc(C(=O)Nc2ccnc3[nH]ccc23)cc1
Outline: as §1

Tanzisertib = compound: O[C@H]1CC[C@H](Nc2ncc3nc(Nc4c(F)cc(F)cc4F)n([C@H]4CCOC4)c3n2)CC1 [Tanzisertib]
Outline: as §1

Cell Line	relative viability ([1]; first compound 0.08 µM)	relative viability ([1]; first compound 0.8 µM)	relative viability ([1]; first compound 2.53 µM)	relative viability ([1]; first compound 8 µM)	relative viability ([2]; 0.08 µM)	relative viability ([2]; 0.8 µM)	relative viability ([2]; 2.53 µM)	relative viability ([2]; 8 µM)	relative viability ([3]; 0.04 µM)	relative viability ([3]; 0.1265 µM)	relative viability ([3]; 0.4 µM)	relative viability ([3]; 1.265 µM)	relative viability ([3]; 4 µM)	relative viability (Tanzisertib; 0.08 µM)	relative viability (Tanzisertib; 0.253 µM)	relative viability (Tanzisertib; 0.8 µM)	relative viability (Tanzisertib; 2.53 µM)	relative viability (Tanzisertib; 8 µM)
NCI-H727	0.386	0.366	0.421	0.364	0.874	0.942	1.05	1.22	1.02	1.17	1.25	0.932	1.3	0.918	0.901	1.01	0.887	0.944
HARA	0.616	0.709	0.762	1.09	1.05	0.898	1.16	0.928	1	0.929	1.11	0.689	0.779	1.12	1.12	0.932	1.05	0.725
NCI-H2228	0.56	0.37	0.696	0.7	0.921	1.17	0.983	1.07	1.17	1.05	1.13	1.03	0.814	1.19	0.853	1.02	1.06	0.864
LCLC-97TM1	0.191	0.204	0.172	0.193	1.05	0.884	1.33	0.947	1.18	0.868	1.16	0.843	0.983	1.03	0.997	1.03	0.941	0.59
LC-2-ad	0.887	1.02	0.93	0.932	0.978	1.09	1	0.964	0.916	0.916	1.02	0.719	0.838	1.1	1.03	1.09	1.03	0.506
SK-LU-1	0.449	0.445	0.541	0.528	1.04	0.972	1.2	1.02	0.986	1.04	1	0.886	0.833	1.19	1.05	1.02	1.1	1.01
EKVX	0.402		0.366	0.445	1.03	0.877	1.12	0.989	1.09	1.12	1.12	0.811	0.885	1.08	1.05	0.96	0.901	0.723
HCC-827	0.524	0.5	0.599	0.601	1.05	1.04	1.06	1.01	0.901	1.13	1.05	1.05	0.938	1.07	1.05	1.03	1.02	0.663
NCI-H650	0.825	1.14	1.1	1.02	0.946	0.933	1.08	0.998		0.849	0.932		0.785	0.973	1.01	0.975	1.14	0.411
CAL-12T	0.351	0.363	0.363	0.419	1.01	1.18	1.08	0.99	1.11	1.04	1.23	0.945	0.839	1.03	1.09	1.08	1.05	1.03
NCI-H2342	0.716	0.798	0.794	1.04	0.919	0.965	1.03	1.16	1.03	1.06	1.04	1.21	0.927	1.09	1.09	0.945	0.845	0.959
SW 900	0.751		0.901	0.836	0.843	0.67	0.88	0.995	0.92	0.965	0.887	1.24	0.986	0.811	0.87	0.936	1.18	0.691
IA-LM					1	1.01	0.996	1.02	1.13	1.1	1.4	1.16	1.12	1.08	0.989	0.989	0.96	0.94
EPLC-272H	0.283	0.278	0.319	0.344	0.902	0.94	0.929	0.98	0.9	0.973	1.11	0.356	0.791	1.14	0.95	1.09	0.908	0.761
A-427	0.748	0.857	0.779	0.874	0.953	1.05	0.984	1.05	0.862	1.07	0.975		0.906	0.997	0.998	1.07	1.08	0.789
NCI-H647	0.491	0.379	0.535	0.525	1.02	0.947	1	0.868	0.992	0.955	0.916	0.694	0.811	1.21	0.976	0.973	1.12	0.779
NCI-H1975	0.342	0.249	0.356	0.394	0.969	0.873	0.998	0.964	0.838	0.875	0.942	0.72	0.602	0.935	1.02	0.934	0.955	0.874
NCI-H358	0.12	0.128	0.136	0.169	0.902	0.994	1.02	0.822	0.912	0.925	0.921	0.86	0.754	1.12	0.912	0.865	0.938	0.581
